The IC50 is the concentration needed to halve the response being measured.

The structures appear in SMILES notation.

This passage reports IC50 and GI50 results from US20260250289A1, “BICYCLIC HETEROCYCLES AND THEIR USE AS WRN INHIBITORS” (Novartis AG, priority 2022, published 2026).

Assay [1] concerns the target T1, WRN helicase (aa N517-P1238) (Homo sapiens, UniProt Q14191).
T1 construct: The core helicase motif of the WRN protein (aa N517-P1238) was produced for this assay; His (N); ZZ (N); 3C protease cleavage site (N); made in house; host or cells: Sf21 insect cells (baculovirus; virus and BIICs made in SF9)
The experiment in a line: WRN ATPase assay (DNA dependent ATP hydrolysis, ADP-Glo). Type of assay: biochemical. Conditions: 3 hours pre-incubation, 300 micromolar ATP, FLAP26 DNA; geometric mean of at least 2. The source says: An ATPase assay was set up to measure the DNA dependent ATP hydrolysis activity of WRN helicase. This assay was used also to assess the inhibition properties of compounds of the invention on DNA dependent WRN ATPase activity.
The core helicase motif of the WRN protein (aa N517-P1238) was produced for this assay (protein production as described above). […] The ADP-Glo assay kit (Promega, Madison, WI) allowing the quantification of ADP produced in ATP hydrolysis reactions was used for setting up this assay.
Time course experiments were first performed in order to determine the best enzymatic assay conditions (including buffer conditions, reaction time and concentrations of protein, ATP and DNA substrates). A typical reaction consists of 10 nM WRN protein, 0.2 nM FLAP26, and 300 micromolar ATP in the following assay buffer: 30 mM Tris pH7.5, 2 mM MgCl2, 0.02% BSA, 50 mM NaCl, 0.1% pluronic F127 prepared in DNAse free water.
To evaluate the inhibition properties of compounds of the invention, serial dilutions were prepared in DMSO (10 half log dilutions from a 10 mM DMSO solution). […] The reaction was stopped with the addition of 5 microliters of the first ADP-Glo reagent and incubated for one hour to remove the excess amount of ATP. Afterwards, 10 microliters of ATP detection reagent was added and incubated for an additional hour before reading. Luminescence output was recorded using Tecan 1000 reader, with 5 minutes delay before reading. Each concentration of compound was tested in duplicates in the assay plate.
Following normalization of activity values for the wells to % inhibition (% inhibition=[(high control-sample)/(high control-low control)]×100), IC50 fitting was carried out from the duplicate determinations present on each plate according to [4]. Data analysis can also be carried out using commercially available software designed to derive IC50 values using 4-parameter fits (e.g. GraphPad Prism, XL fit). The reported IC50 values are the geometrical means of at least 2 independent replicates.

For the next assay, the system named is SW48 cells. The experiment in a line: Proliferation assay SW48 (CellTiterGlo). Type of assay: cell-based. Conditions: Homo sapiens, SW48, 96 h, SW48 colon carcinoma cells, 96 hours, CellTiterGlo; geometric mean of at least 2; read-out: Proliferation Assay SW48 GI50. The source says: The colon carcinoma cell lines SW48 (RRID: CVCL_1724), HCT 116 (RRID: CVCL_0291) and SNU-407 (RRID: CVCL_5058) were obtained from ATCC. The WRN-knockdown insensitive colon carcinoma cell line DLD-1 (RRID: CVCL_0248) was obtained from the Korean Cell Line Bank (KCLB), and used to generate a derivative in which the endogenous WRN gene copies were knocked out by CRISPR-mediated editing using standard CRISPR methods. The resulting cell line, DLD1-WRN-KO, was used to assess potential off-target compound effects.
SW48, SNU-407 and DLD1-WRN-KO cells were cultured in growth medium composed of RPMI-1640 (Amimed Cat #1-41F22-1), 2 mM L-Glutamine (Amimed Cat #5-10K50), 10 mM HEPES (Gibco Cat #15630-056), 1 mM sodium pyruvate (Amimed Cat #5-60F00-H), 1× Penicillin-Streptomycin (Amimed Cat #4-01F00-H) and 10% fetal calf serum (Amimed Cat #2-01F30-G, Lot #LB11566P). HCT 116 cells were cultured in growth medium composed of McCoys 5A (Amimed catalog #1-18F01-1), 2 mM L-Glutamine (Amimed Cat #5-10K50), 1× Penicillin-Streptomycin (Amimed Cat #4-01F00-H) and 10% fetal calf serum (Amimed Cat #2-01F30-G, Lot #LB11566P). All cells were maintained at 37° C. in a humidified 5% CO2 incubator.
Following filtration through a Steriflip-NY 20 μm filter (Millipore Cat #SCNY00020), trypsinized cells were seeded in 100 microliters growth medium at 2,000 (SW48) or 1,500 (SNU-407, DLD1-WRN-KO, HCT 116) cells/well into white, clear-bottom 96-well plates (Costar Cat #3903). Three replicate plates were prepared for each compound treatment condition. In addition, one plate (termed “day 0”) was prepared to quantify the number of viable cells at the time of compound addition. Following overnight incubation at 37° C. in a humidified 5% CO2 atmosphere, eight 3-fold serial dilutions of a given compound stock (obtained at a concentration of 10 mM in DMSO and stored at 4° C.) were dispensed directly into each of the triplicate assay plates using a HP 300D non-contact Digital Dispenser (TECAN). The final concentration of DMSO was normalized to 0.1% in all wells. 96 hours after compound addition, cellular ATP levels as a surrogate for cell viability was assessed following addition of 50 microliters CellTiterGlo (Promega Cat #G7573) reagent and luminescence quantification on a MPLEX multi-mode plate-reader (TECAN) following a 10 minute incubation at room temperature. The number of viable cells in the “day 0” plate were quantified identically on the day of compound addition.
For data analysis, the assay background signal that was determined in wells containing medium, but no cells, was subtracted from all other data points prior to further calculations. The extent of growth inhibition and potential cell kill was assessed by comparing the ATP levels (measured using CellTiterGlo, Promega) in compound-treated cells with those present at the time of compound addition. To this end, the following conditional concept was programmatically applied in HELIOS, an in-house software applying a multi-step decision tree to arrive at optimal concentration response curve fits (Gubler et al, SLAS DOI: 10.1177/2472555217752140) to calculate % growth (% G) for each compound-treated well: % G=(T−V0)/V0))*100 when T<V0, and % G=(T−V0)/(V−V0)))*100 when T≥V0, where V0 is the viability level at time of compound addition, while V and T represent vehicle-control and compound-treated viability levels, respectively, at the end of the compound incubation. 100%, 0% and −100% signify absence of growth inhibition, growth stasis, and complete cell kill, respectively. Compound concentrations leading to half-maximal growth inhibition (GI50) and residual cell viability at the highest tested compound concentration (Data (cmax), expressed in percent) were routinely calculated. Data analysis can also be carried out using commercially available software designed to derive IC50 values using 4-parameter fits (e.g. GraphPad Prism, XL fit). […]
For orientation: Cellular ATP, detected with luciferase, serves as a proxy for viable cell number.

Another assay concerns DLD1-WRN-KO cells. The experiment in a line: Proliferation assay DLD1-WRN-KO (CellTiterGlo, off-target effects). It counts as cell-based. The settings on record: 96 hours, geometric mean of at least 2. How it is done:
The WRN-knockdown insensitive colon carcinoma cell line DLD-1 (RRID: CVCL_0248) was obtained from the Korean Cell Line Bank (KCLB), and used to generate a derivative in which the endogenous WRN gene copies were knocked out by CRISPR-mediated editing using standard CRISPR methods. The resulting cell line, DLD1-WRN-KO, was used to assess potential off-target compound effects. […]
Three replicate plates were prepared for each compound treatment condition. In addition, one plate (termed “day 0”) was prepared to quantify the number of viable cells at the time of compound addition. Following overnight incubation at 37° C. in a humidified 5% CO2 atmosphere, eight 3-fold serial dilutions of a given compound stock (obtained at a concentration of 10 mM in DMSO and stored at 4° C.) were dispensed directly into each of the triplicate assay plates using a HP 300D non-contact Digital Dispenser (TECAN). The final concentration of DMSO was normalized to 0.1% in all wells. 96 hours after compound addition, cellular ATP levels as a surrogate for cell viability was assessed following addition of 50 microliters CellTiterGlo (Promega Cat #G7573) reagent and luminescence quantification on a MPLEX multi-mode plate-reader (TECAN) following a 10 minute incubation at room temperature. The number of viable cells in the “day 0” plate were quantified identically on the day of compound addition.
For data analysis, the assay background signal that was determined in wells containing medium, but no cells, was subtracted from all other data points prior to further calculations. The extent of growth inhibition and potential cell kill was assessed by comparing the ATP levels (measured using CellTiterGlo, Promega) in compound-treated cells with those present at the time of compound addition. […] 100%, 0% and −100% signify absence of growth inhibition, growth stasis, and complete cell kill, respectively. Compound concentrations leading to half-maximal growth inhibition (GI50) and residual cell viability at the highest tested compound concentration (Data (cmax), expressed in percent) were routinely calculated. Data analysis can also be carried out using commercially available software designed to derive IC50 values using 4-parameter fits (e.g. GraphPad Prism, XL fit). The reported GI50 values are the geometrical means of at least 2 independent replicates.

T1 sequence (Q14191 517-1238): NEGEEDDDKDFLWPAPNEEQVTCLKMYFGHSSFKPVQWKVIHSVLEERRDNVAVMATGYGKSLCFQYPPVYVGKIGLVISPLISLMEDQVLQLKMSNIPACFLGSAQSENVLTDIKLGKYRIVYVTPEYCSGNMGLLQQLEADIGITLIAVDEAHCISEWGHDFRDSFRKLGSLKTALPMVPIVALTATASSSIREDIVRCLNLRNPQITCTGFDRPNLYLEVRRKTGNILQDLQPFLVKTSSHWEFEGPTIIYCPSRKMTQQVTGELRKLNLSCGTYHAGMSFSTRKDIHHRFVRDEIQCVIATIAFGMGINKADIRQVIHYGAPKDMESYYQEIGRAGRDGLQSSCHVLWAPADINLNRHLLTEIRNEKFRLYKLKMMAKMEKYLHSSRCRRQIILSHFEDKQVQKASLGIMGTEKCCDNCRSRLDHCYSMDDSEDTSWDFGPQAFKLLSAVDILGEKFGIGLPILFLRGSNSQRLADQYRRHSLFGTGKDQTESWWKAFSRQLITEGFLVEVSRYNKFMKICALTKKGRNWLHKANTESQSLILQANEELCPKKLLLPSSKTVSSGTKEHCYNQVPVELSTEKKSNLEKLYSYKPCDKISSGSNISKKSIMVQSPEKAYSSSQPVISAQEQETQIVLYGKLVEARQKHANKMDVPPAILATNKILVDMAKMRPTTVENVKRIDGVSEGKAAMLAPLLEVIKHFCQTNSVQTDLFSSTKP

In assay [1], `CC(=O)N1CCN(c2c(C)n(CC(=O)Nc3ccc(C(F)(F)F)cc3)c3nc(N4CCC5CC54)nn3c2=O)CC1` (stereo not drawn) [Example 6, 2-(6-(4-acetylpiperazin-1-yl)-2-(2-azabicyclo[3.1.0]hexan-2-yl)-5-methyl-7-oxo-[1,2,4]triazolo[1,5-a]pyrimidin-4(7H)-yl)-N-(4-(trifluoromethyl)phenyl)acetamide] had an IC50 of 2000 nM. For the same molecule, the GI50 in the assay with SW48 cells is 7000 nM; with DLD1-WRN-KO cells, over 10000 nM.
For `CCc1c(N2CCN(C(=O)c3ncc4c(c3O)OCC4)CC2)c(=O)n2nc(C3=CCOCC3)nc2n1CC(=O)Nc1ccc(C(F)(F)F)cc1Cl` [Example 11, N-(2-chloro-4-(trifluoromethyl)phenyl)-2-(2-(3,6-dihydro-2H-pyran-4-yl)-5-ethyl-6-(4-(7-hydroxy-2,3-dihydrofuro[3,2-c]pyridine-6-carbonyl)piperazin-1-yl)-7-oxo-[1,2,4]triazolo[1,5-a]pyrimidin-4(7H)-yl)acetamide], in that order: 50 nM, 60 nM and over 10000 nM.
Molecule `CCc1c(N2CCN(C(=O)c3nn(C)c(=O)[nH]3)CC2)c(=O)n2nc(C3=CCCC3)nc2n1CC(=O)Nc1ccc(C(F)(F)F)cc1` [Example 12, 2-(2-(cyclopent-1-en-1-yl)-5-ethyl-6-(4-(1-methyl-5-oxo-4,5-dihydro-1H-1,2,4-triazole-3-carbonyl)piperazin-1-yl)-7-oxo-[1,2,4]triazolo[1,5-a]pyrimidin-4(7H)-yl)-N-(4-(trifluoromethyl)phenyl)acetamide] showed an IC50 in assay [1] of 10 nM. Moreover, the GI50 with SW48 cells was 800 nM; in the assay on DLD1-WRN-KO cells, over 10000 nM.
For `Cc1c(N2CCN(C(=O)c3c(F)ccc(F)c3O)CC2)c(=O)n2nc(C3=CCOCC3)nc2n1CC(=O)Nc1ccc(C(F)(F)F)cc1` [Example 13, 2-(6-(4-(3,6-difluoro-2-hydroxybenzoyl)piperazin-1-yl)-2-(3,6-dihydro-2H-pyran-4-yl)-5-methyl-7-oxo-[1,2,4]triazolo[1,5-a]pyrimidin-4(7H)-yl)-N-(4-(trifluoromethyl)phenyl)acetamide], in that order: 30 nM, 300 nM and over 10000 nM.
For `CCc1c(N2CCN(C(=O)c3c(O)ccc4cccnc34)CC2)c(=O)n2nc(C3=CCOCC3)nc2n1CC(=O)Nc1ccc(C(F)(F)F)cc1` [Example 14, 2-(2-(3,6-dihydro-2H-pyran-4-yl)-5-ethyl-6-(4-(7-hydroxyquinoline-8-carbonyl)piperazin-1-yl)-7-oxo-[1,2,4]triazolo[1,5-a]pyrimidin-4(7H)-yl)-N-(4-(trifluoromethyl)phenyl)acetamide], in that order: 40 nM, 200 nM and over 10000 nM.
For `Cc1c(N2CCN(C(=O)c3c(O)cccc3O)CC2)c(=O)n2nc(C3=CCOCC3)nc2n1CC(=O)Nc1ccc(C(F)(F)F)cc1` [Example 15, 2-(2-(3,6-dihydro-2H-pyran-4-yl)-6-(4-(2,6-dihydroxybenzoyl)piperazin-1-yl)-5-methyl-7-oxo-[1,2,4]triazolo[1,5-a]pyrimidin-4(7H)-yl)-N-(4-(trifluoromethyl)phenyl)acetamide], in that order: 50 nM, 4000 nM and over 10000 nM.
With `Cc1c(N2CCN(C(=O)c3ccc(F)c(F)c3O)CC2)c(=O)n2nc(C3=CCOCC3)nc2n1CC(=O)Nc1ccc(C(F)(F)F)cc1` [Example 16, 2-(6-(4-(3,4-difluoro-2-hydroxybenzoyl)piperazin-1-yl)-2-(3,6-dihydro-2H-pyran-4-yl)-5-methyl-7-oxo-[1,2,4]triazolo[1,5-a]pyrimidin-4(7H)-yl)-N-(4-(trifluoromethyl)phenyl)acetamide], the IC50 in assay [1] was found to be 50 nM. The GI50 in the assay with SW48 cells is 500 nM; in the assay with DLD1-WRN-KO cells, over 10000 nM.
